Results from patent US20240190843A1, “CRYSTALLINE FORM OF A SHP2 INHIBITOR” (Array BioPharma Inc., priority 2021, published 2024).

Assay: Comparative stability of stored solid samples (HPLC purity, PXRD, appearance after 7 days)
Assay type: physicochemical
Method: The chemical stability data using HPLC was evaluated on samples stored at several conditions as listed in Table 6 between free base hemihydrate Form 1 and amorphous form.
HPLC Method • Column: LC\027 Agilent Poroshell 120 EC-C18 150×4.6 mm, 2.7 μm • Column Temperature: 40° C. • Autosampler Temperature: Ambient • UV wavelength: 220 nm • Injection Volume: 4.00 μL • Flow Rate: 1.5 mL/min • Mobile Phase A: 0.02% TFA in H2O • Mobile Phase B: 0.02% TFA in MeCN • Time (minutes) Solvent B [%] • 0 20 • 3 20 • 15 70 • 15.1 95 • 16 95 • 16.1 20 • 20.0 20

## Nc1nccc(Sc2cnc(N3CCC4(CC3)Cc3ccccc3[C@H]4N)nn2)c1Cl [Amorphous, (S)-1′-(6-((2-amino-3-chloropyridin-4-yl)thio)-1,2,4-triazin-3-yl)-1,3-dihydrospiro[indene-2,4′-piperidin]-1-amine]
Stored at 25° C./60% RH
  HPLC purity (%) after 7 days: 82.8%
  Observations after 7 days: Vibrant
  PXRD after 7 days: Amorphous
Stored at 40° C./75% RH
  HPLC purity (%) after 7 days: 86.7%
  Observations after 7 days: Vibrant
  PXRD after 7 days: Amorphous
Stored at 80° C.
  HPLC purity (%) after 7 days: 54.7%
  Observations after 7 days: Brown
  PXRD after 7 days: Amorphous
Stored at Ambient
  HPLC purity (%) after 7 days: 71.7%
  Observations after 7 days: Vibrant
  PXRD after 7 days: Amorphous

## Nc1nccc(Sc2cnc(N3CCC4(CC3)Cc3ccccc3[C@H]4N)nn2)c1Cl [Form 1, (S)-1′-(6-((2-amino-3-chloropyridin-4-yl)thio)-1,2,4-triazin-3-yl)-1,3-dihydrospiro[indene-2,4′-piperidin]-1-amine]
Stored at 25° C./60% RH
  HPLC purity (%) after 7 days: 97.5%
  Observations after 7 days: Yellow
  PXRD after 7 days: Form 1
Stored at 40° C./75% RH
  HPLC purity (%) after 7 days: 97.6%
  Observations after 7 days: Yellow
  PXRD after 7 days: Form 1
Stored at 80° C.
  HPLC purity (%) after 7 days: 97.1%
  Observations after 7 days: Yellow
  PXRD after 7 days: Form 1
Stored at Ambient
  HPLC purity (%) after 7 days: 97.1%
  Observations after 7 days: Yellow
  PXRD after 7 days: Form 1
